The text below walks through data of paper PMC12685177, “Structures of G-protein coupled receptor HCAR3 in complex with selective agonists reveal the basis for ligand recognition and selectivity” (PLOS Biology, 2025).

Structures are written as SMILES. Several values for one entry are separate records, joined by “and”; a condition that tells them apart may be missing. Equal entries are not always repeated. Where two headings read alike, the source gives them in different places.

One experiment concerns HCAR2 N86L. Kind of experiment: cAMP assay, homology-mutated HCAR2 at residue 86 (N86L). Type of experiment: cell-based, human. Background: cAMP levels reflect the balance of adenylyl cyclase and phosphodiesterase activity.
The subject of another experiment is HCAR3. Conditions: cited from earlier work; for higher affinity to HCAR3 than to HCAR2: HCAR3 vs HCAR2; for affinity difference to HCAR3 compared to HCAR2: previously reported.
In another experiment the target is T1, wild-type HCAR3 (Homo sapiens, UniProt P49019).
T1 construct: expression of the entire length of human HCAR3 and HCAR2 proteins; FLAG (N); 3C protease cleavage site (N); His (C); made in house
Nature of the experiment: Surface plasmon resonance measurement (Biacore X100), wild-type HCAR3. Type of experiment: binding. The note with it: 6O, PLA, IBC293, acifran compared. A general note: In SPR one partner is held on a chip, and binding of the other changes the refractive index at the surface.

Experiment [1] concerns the target T2, wild-type HCAR2 (Homo sapiens, UniProt Q8TDS4).
T2 construct: expression of the entire length of human HCAR3 and HCAR2 proteins; FLAG (N); 3C protease cleavage site (N); His (C); made in house
Type of experiment: binding. The arrangement: SPR sensorgram response, Acifran-HCAR2: unit not given here.

The subject of experiment [2] is wild-type HCAR2. It is filed as binding, human. Also noted: SPR sensorgram response, Acifran-HCAR2: unit not given here.
The target of a further experiment is T3, HCAR3 R111A (Homo sapiens, UniProt P49019, R111A).
T3 construct: Full-length variants of HCAR3 and HCAR2, including specific point mutations, were incorporated into pcDNA3.1 vectors; FLAG; expressed in transfected cells
Nature of the experiment: cAMP assay, HCAR3 R111A mutant. Conditions: HCAR3 R111A vs WT. Type of experiment: cell-based.

T2 sequence (Q8TDS4 whole entry): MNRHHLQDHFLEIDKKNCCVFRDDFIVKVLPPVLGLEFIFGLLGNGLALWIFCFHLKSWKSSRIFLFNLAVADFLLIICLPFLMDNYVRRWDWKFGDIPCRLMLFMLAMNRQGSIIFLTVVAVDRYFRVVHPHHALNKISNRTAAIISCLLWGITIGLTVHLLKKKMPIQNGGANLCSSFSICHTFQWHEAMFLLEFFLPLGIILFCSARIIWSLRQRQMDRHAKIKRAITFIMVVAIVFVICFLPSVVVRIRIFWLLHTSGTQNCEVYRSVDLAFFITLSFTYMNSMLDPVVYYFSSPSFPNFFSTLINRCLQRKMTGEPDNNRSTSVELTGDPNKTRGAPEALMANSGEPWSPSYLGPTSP
T3 sequence (P49019 whole entry R111A): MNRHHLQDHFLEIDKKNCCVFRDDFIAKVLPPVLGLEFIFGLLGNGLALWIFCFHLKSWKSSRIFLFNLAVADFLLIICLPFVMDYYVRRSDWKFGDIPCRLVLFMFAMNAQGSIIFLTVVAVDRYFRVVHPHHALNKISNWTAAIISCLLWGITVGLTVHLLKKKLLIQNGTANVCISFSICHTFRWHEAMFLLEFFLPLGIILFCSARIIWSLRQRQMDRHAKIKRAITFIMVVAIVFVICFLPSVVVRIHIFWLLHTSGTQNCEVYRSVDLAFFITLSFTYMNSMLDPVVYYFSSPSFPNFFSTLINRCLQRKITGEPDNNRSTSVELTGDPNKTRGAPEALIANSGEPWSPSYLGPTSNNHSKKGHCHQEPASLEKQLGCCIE
T1 sequence (P49019 whole entry): as the sequence (P49019 whole entry R111A) above, with A111R counted along it
Procedure for HCAR2 N86L: The cAMP levels were quantified using the cAMP-Gi kit from Perkin Elmer (model TRF0263), adhering to the manufacturer’s guidelines. […] After 36 hours, the cells, once rinsed with PBS, were treated with a stimulation buffer,including 500 μM IBMX, and incubated for 30 min in a 384-well plate maintained at 37 °C, with a seeding density of 4,000 cells per well. This step was followed by the addition of 12 μM forskolin to each well, with the incubation continuing for an additional 45 min at the same temperature. Subsequently, each well received 5 μL of the cAMP Eu-cryptate solution and the anti-cAMP-d2 solution, and the mixture was incubated for 1 hour at room temperature [45]. […] The acquired data were analyzed using GraphPad Prism version 9.0, with statistical significance set at p < 0.05. All experimental procedures were replicated three times to ensure accuracy.
Procedure for HCAR3 R111A: Full-length variants of HCAR3 and HCAR2, including specific point mutations, were incorporated into pcDNA3.1 vectors for conducting cAMP assays. The cAMP levels were quantified using the cAMP-Gi kit from Perkin Elmer (model TRF0263), adhering to the manufacturer’s guidelines. […] Cells were transiently transfected with either wild-type or mutant HCAR3 plasmids (at a dosage of 500 ng per well in a 24-well format) using Lipofectamine 3000 (Invitrogen). After 36 hours, the cells, once rinsed with PBS, were treated with a stimulation buffer,including 500 μM IBMX, and incubated for 30 min in a 384-well plate maintained at 37 °C, with a seeding density of 4,000 cells per well. This step was followed by the addition of 12 μM forskolin to each well, with the incubation continuing for an additional 45 min at the same temperature. Subsequently, each well received 5 μL of the cAMP Eu-cryptate solution and the anti-cAMP-d2 solution, and the mixture was incubated for 1 hour at room temperature [45]. Fluorescence readings at 620/665 nm were then gathered using a multimode plate reader (Perkin Elmer EnVision 2105) [46]. The acquired data were analyzed using GraphPad Prism version 9.0, with statistical significance set at p < 0.05. All experimental procedures were replicated three times to ensure accuracy.

Consider `O=C(O)c1cc(N(Cc2ccsc2)Cc2ccsc2)n[nH]1` [6O, 3-[bis(thiophen-3-ylmethyl)amino]-1H-pyrazole-5-carboxylic acid], for which the “cAMP response (normalized)” value in the experiment with HCAR2 N86L (6O-HCAR2 N86L, log[M] -3, Fig. S14B) was 75.8023 and 73.3702 and 70.1872; in the experiment on HCAR2 N86L (6O-HCAR2 N86L, log[M] -4, Fig. S14B) it was 70.0938 and 69.3817 and 72.4279; in the experiment on HCAR2 N86L (6O-HCAR2 N86L, log[M] -5, Fig. S14B), 77.2869 and 68.2771 and 76.7503; in the experiment with HCAR2 N86L (6O-HCAR2 N86L, log[M] -6, Fig. S14B), 87.0105 and 88.7719 and 89.0756; with HCAR2 N86L (6O-HCAR2 N86L, log[M] -7, Fig. S14B), 92.1091 and 85.2704 and 84.4838; in the experiment on HCAR2 N86L (6O-HCAR2 N86L, log[M] -8, Fig. S14B) it was 95.6219 and 96.9675 and 90.6554. Further, the “cAMP response (normalized)” value with HCAR2 N86L (6O-HCAR2 N86L, log[M] -9, Fig. S14B) was 95.5893 and 94.7012 and 97.44; in the experiment with HCAR2 N86L (6O-HCAR2 N86L, log[M] -10, Fig. S14B), 99.7701 and 103.601 and 102.183. Also, the “higher affinity to HCAR3 than to HCAR2” value with HCAR3 is “at least 100 fold”. The “affinity difference to HCAR3 compared to HCAR2” value (from here on “affinity difference to HCAR3”) in the experiment with HCAR3 is reported as 100- to 1,000 fold. Further, on wild-type HCAR3, the “efficacy among the four ligands by surface plasmon resonance” value is reported as “highest efficacy among these four ligands”.

Regarding `CC1(c2ccccc2)OC(C(=O)O)=CC1=O` (stereo not drawn) [Acifran, acifran], the “cAMP response (normalized)” value is 51.1208 and 61.7941 and 63.8756 in the experiment on HCAR2 N86L (Acifran-HCAR2 N86L, log[M] -3, Fig. S12E); 60.2042 and 54.7738 and 52.0221 with HCAR2 N86L (Acifran-HCAR2 N86L, log[M] -4, Fig. S12E); 64.2273 and 75.5651 and 74.1332 in the experiment on HCAR2 N86L (Acifran-HCAR2 N86L, log[M] -5, Fig. S12E); 84.0136 and 74.6749 with HCAR2 N86L (Acifran-HCAR2 N86L, log[M] -6, Fig. S12E); 89.2308 and 93.0182 in the experiment on HCAR2 N86L (Acifran-HCAR2 N86L, log[M] -7, Fig. S12E); 92.6771 and 91.0418 in the experiment with HCAR2 N86L (Acifran-HCAR2 N86L, log[M] -8, Fig. S12E). In addition, the “cAMP response (normalized)” value in the experiment with HCAR2 N86L (Acifran-HCAR2 N86L, log[M] -9, Fig. S12E) is 100.347 and 91.8401 and 97.0308; in the experiment on HCAR2 N86L (Acifran-HCAR2 N86L, log[M] -10, Fig. S12E), 103.679. Also, the “SPR sensorgram response, Acifran-HCAR2” value at wild-type HCAR2 [1] (acifran concentration 0.025 (unit not given), c2 value 159.6 (head printed log[M])) was -15.5002; at wild-type HCAR2 [1] (acifran concentration 0.025 (unit not given), c2 value 160.6 (head printed log[M])) it was -15.3633; on wild-type HCAR2 [1] (acifran concentration 0.05 (unit not given), c2 value 159.6 (head printed log[M])) it was -16.3767; on wild-type HCAR2 [1] (acifran concentration 0.1 (unit not given), c2 value 159.6 (head printed log[M])), -16.3472; on wild-type HCAR2 [1] (acifran concentration 0.4 (unit not given), c2 value 159.6 (head printed log[M])) it was -15.8456. Moreover, the “affinity difference acifran-HCAR2 vs acifran-HCAR3” value with wild-type HCAR2 [2] was ~ 100 fold.

With `O=C(O)C(O)Cc1ccccc1` [PLA, D-phenyllactic acid], the “cAMP response (normalized)” value in the experiment on HCAR2 N86L (PLA-HCAR2 N86L, log[M] -3, Fig. S14D) is 52.7872 and 58.3693 and 59.0285; with HCAR2 N86L (PLA-HCAR2 N86L, log[M] -4, Fig. S14D) it was 77.5234 and 72.7009 and 60.409; in the experiment with HCAR2 N86L (PLA-HCAR2 N86L, log[M] -5, Fig. S14D) it was 76.3988 and 76.6951 and 70.3605; in the experiment with HCAR2 N86L (PLA-HCAR2 N86L, log[M] -6, Fig. S14D), 100.996 and 89.6375 and 92.8244; with HCAR2 N86L (PLA-HCAR2 N86L, log[M] -7, Fig. S14D) it was 92.0146 and 97.7923 and 90.5493; in the experiment with HCAR2 N86L (PLA-HCAR2 N86L, log[M] -8, Fig. S14D), 94.5951 and 98.3127 and 96.313. In addition, the “cAMP response (normalized)” value in the experiment with HCAR2 N86L (PLA-HCAR2 N86L, log[M] -9, Fig. S14D) is 99.4667 and 89.0551 and 95.4388; with HCAR2 N86L (PLA-HCAR2 N86L, log[M] -10, Fig. S14D), 94.992 and 94.7429 and 103.357. Also, the “affinity difference to HCAR3” value with HCAR3 is listed as 100- to 1,000 fold.

On to `CC(C)n1nnc2cc(C(=O)O)ccc21` [IBC293, 1-propan-2-ylbenzotriazole-5-carboxylic acid], for which the “cAMP response (normalized)” value is 79.8778 and 75.4919 and 74.9151 with HCAR2 N86L (IBC293-HCAR2 N86L, log[M] -3, Fig. S14C); 76.5789 and 72.1623 and 89.1848 in the experiment with HCAR2 N86L (IBC293-HCAR2 N86L, log[M] -4, Fig. S14C); 83.4897 and 75.4819 and 86.0148 with HCAR2 N86L (IBC293-HCAR2 N86L, log[M] -5, Fig. S14C); 92.474 and 94.1647 and 90.5718 in the experiment on HCAR2 N86L (IBC293-HCAR2 N86L, log[M] -6, Fig. S14C); 100.025 and 101.905 and 97.6855 in the experiment on HCAR2 N86L (IBC293-HCAR2 N86L, log[M] -7, Fig. S14C); 96.4886 and 103.749 and 98.8962 in the experiment with HCAR2 N86L (IBC293-HCAR2 N86L, log[M] -8, Fig. S14C). In addition, the “cAMP response (normalized)” value with HCAR2 N86L (IBC293-HCAR2 N86L, log[M] -9, Fig. S14C) was 106.585 and 93.0489 and 96.2716; with HCAR2 N86L (IBC293-HCAR2 N86L, log[M] -10, Fig. S14C) it was 101.501 and 101.566 and 98.9795. Besides, in the experiment on HCAR3, the “higher affinity to HCAR3 than to HCAR2” value is recorded as “at least 100 fold”. Moreover, the “affinity difference to HCAR3” value with HCAR3 is reported as 100- to 1,000 fold. On HCAR3 R111A, the “effect of R111A mutation on agonist action at HCAR3 (cAMP assay)” value is reported as “barely interfered HCAR3 activation”.
